From patent US5098996A, “Process for introducing fluorine into biologically active materials” (The United States of America as represented by the …, priority 1988, dated 1992)

Key:
[1] = molecular target: T1, substance P receptor (Rattus norvegicus, UniProt P14600); assay: competitive binding assay, substance P receptor, rat brain
T1 construct: from tissue; host or cells: rat brain (per the earlier reading)

[2] = tested on: insulin-antibody; assay: insulin-antibody binding assay
Experimental: N^α,A1,N^ε,B29 (BOC)2 insulin, 537 mg, […], was dissolved in 500 ml DMSO. FMB-Gly-OAS, 120 mg, 390 mmole in 20 ml DMSO, and 24.5 mg, 390 mmole in 2.5 ml DMSO , and 4-ethyl morpholine, 100 mg, 870 mmole in 10 ml DMSO, were added, and the reaction was allowed to remain at rom temperature for eighteen hours. The reaction was monitored by RP-HPLC until completion. One pure product was obtained, Rt=26 minutes . The eluting solvents were A, 0.1% TFA in water; B, 0.1% TFA in acetonitrile. Elution was made from 25% B to 80% in 45 minutes. The solution was lyophilized, and 50 ml neat TFA was added for five minutes, and then evaporated. The product reacted in an insulin-antibody binding assay.

T1 sequence (P14600 whole entry): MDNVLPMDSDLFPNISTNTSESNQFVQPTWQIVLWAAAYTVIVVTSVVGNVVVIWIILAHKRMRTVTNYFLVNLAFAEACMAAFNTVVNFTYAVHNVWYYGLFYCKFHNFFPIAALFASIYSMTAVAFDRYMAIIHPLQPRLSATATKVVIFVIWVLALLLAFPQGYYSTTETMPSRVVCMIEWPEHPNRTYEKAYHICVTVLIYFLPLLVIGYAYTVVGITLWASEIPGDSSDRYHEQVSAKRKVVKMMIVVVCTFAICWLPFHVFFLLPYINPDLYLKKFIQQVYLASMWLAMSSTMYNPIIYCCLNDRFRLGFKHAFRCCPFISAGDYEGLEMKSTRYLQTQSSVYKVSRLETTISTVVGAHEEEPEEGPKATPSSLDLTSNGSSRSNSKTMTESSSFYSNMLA

Substance | Ki [1] [nM] | reaction in insulin-antibody binding assay [2]
N^αFMBArgProLysProGlnGlnPhePheGlyLeuMetNH2 [Compound 29] | 1 | 
FMB-Gly-Insulin: Insulin acylated with FMB-Gly active ester from N^α,A1,N^ε,B29 (BOC)2 insulin, then TFA deprotected |  | reacted
